From patent US11446287B2, “Compounds and methods for EP300 or CBP modulation and indications therefor” (Opna Immuno-Oncology SA, priority 2019, dated 2022)

The molecules below were run against T1, Recombinant human BRD4 containing dual bromodomains (BRD4-BD12 (1-477)) (Homo sapiens, UniProt O60885) (assay: BRD4 Alphascreen binding assay).
T1 construct: Recombinant human BRD4 containing dual bromodomains (BRD4-BD12 (1-477)); made in house; host or cells: E. coli BL21-CodonPlus (DE3), modified pET vector
How it was run: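 His-tagged human BRD4 tandem bromodomains (1-477, E. coli) incubated 1 h at room temperature with biotinylated tetra-acetylated H4 (1-21) peptide and compound in HEPES pH 7.5 buffer with 2 mM DTT. AlphaScreen signal read 30 min after adding beads (7.5 μg/ml); IC50 from four-parameter fit after normalization to controls.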

Compound	IC50
Cc1noc(C)c1-c1cnc2c(c1)c(-c1ccc(C(=O)O)cc1Cl)cn2C(c1ccccn1)C1CCCC1 (stereo not drawn) [P-0027, 3-chloro-4-(1-(cyclopentyl(pyridin-2-yl)methyl)-5-(3,5-dimethylisoxazol-4-yl)-1H-pyrrolo[2,3-b]pyridin-3-yl)benzoic acid]	1 to 8 µM
Cc1cc(-c2cn(C(c3ccccn3)C3CCCC3)c3ncc(-c4c(C)noc4C)cc23)ccc1C(=O)O (stereo not drawn) [P-0028, 4-(1-(cyclopentyl(pyridin-2-yl)methyl)-5-(3,5-dimethylisoxazol-4-yl)-1H-pyrrolo[2,3-b]pyridin-3-yl)-2-methylbenzoic acid]	1 to 8 µM
Cc1noc(C)c1-c1cnc2c(c1)c(-c1ccc(C(=O)O)c(C(F)(F)F)c1)cn2C(c1ccccn1)C1CCCC1 (stereo not drawn) [P-0029, 4-(1-(cyclopentyl(pyridin-2-yl)methyl)-5-(3,5-dimethylisoxazol-4-yl)-1H-pyrrolo[2,3-b]pyridin-3-yl)-2-(trifluoromethyl)benzoic acid]	1 to 8 µM
Cc1noc(C)c1-c1cnc2c(c1)c(-c1ccc(C(=O)O)c(O)c1)cn2C(c1ccccn1)C1CCCC1 (stereo not drawn) [P-0030, 4-(1-(cyclopentyl(pyridin-2-yl)methyl)-5-(3,5-dimethylisoxazol-4-yl)-1H-pyrrolo[2,3-b]pyridin-3-yl)-2-hydroxybenzoic acid]	8 to 1000 µM
Cc1noc(C)c1-c1cnc2c(c1)c(-c1ccc(CC(=O)O)cc1)cn2C(c1ccccn1)C1CCCC1 (stereo not drawn) [P-0031, 2-(4-(1-(cyclopentyl(pyridin-2-yl)methyl)-5-(3,5-dimethylisoxazol-4-yl)-1H-pyrrolo[2,3-b]pyridin-3-yl)phenyl)acetic acid]	1 to 8 µM
Cc1noc(C)c1-c1cnc2c(c1)c(-c1ccc(C(C)(C)C(=O)O)cc1)cn2C(c1ccccn1)C1CCCC1 (stereo not drawn) [P-0032, 2-(4-(1-(cyclopentyl(pyridin-2-yl)methyl)-5-(3,5-dimethylisoxazol-4-yl)-1H-pyrrolo[2,3-b]pyridin-3-yl)phenyl)-2-methylpropanoic acid]	1 to 8 µM
Cc1noc(C)c1-c1cnc2c(c1)c(-c1ccc(C3(C(=O)O)CC3)cc1)cn2C(c1ccccn1)C1CCCC1 (stereo not drawn) [P-0033, 1-(4-(1-(cyclopentyl(pyridin-2-yl)methyl)-5-(3,5-dimethylisoxazol-4-yl)-1H-pyrrolo[2,3-b]pyridin-3-yl)phenyl)cyclopropane-1-carboxylic acid]	1 to 8 µM
Cc1noc(C)c1-c1cnc2c(c1)c(-c1ccc(C(F)(F)C(=O)O)cc1)cn2C(c1ccccn1)C1CCCC1 (stereo not drawn) [P-0034, 2-(4-(1-(cyclopentyl(pyridin-2-yl)methyl)-5-(3,5-dimethylisoxazol-4-yl)-1H-pyrrolo[2,3-b]pyridin-3-yl)phenyl)-2,2-difluoroacetic acid]	1 to 8 µM
COc1ncccc1-n1cc(-c2ccc(C(=O)O)cc2OC(F)(F)F)c2cc(-c3c(C)noc3C)cnc21 [P-0316, 4-(5-(3,5-dimethylisoxazol-4-yl)-1-(2-methoxypyridin-3-yl)-1H-pyrrolo[2,3-b]pyridin-3-yl)-3-(trifluoromethoxy)benzoic acid]	1 to 8 µM
Cc1ncccc1-n1cc(-c2ccc(C(=O)O)cc2OC(F)(F)F)c2cc(-c3c(C)noc3C)cnc21 [P-0317, 4-(5-(3,5-dimethylisoxazol-4-yl)-1-(2-methylpyridin-3-yl)-1H-pyrrolo[2,3-b]pyridin-3-yl)-3-(trifluoromethoxy)benzoic acid]	8 to 1000 µM
Cc1noc(C)c1-c1cnc2c(c1)c(-c1ccc(C(=O)O)cc1OC(F)(F)F)cn2-c1cnn(C)c1 [P-0318, 4-(5-(3,5-dimethylisoxazol-4-yl)-1-(1-methyl-1H-pyrazol-4-yl)-1H-pyrrolo[2,3-b]pyridin-3-yl)-3-(trifluoromethoxy)benzoic acid]	0.0001 to 1 µM
Cc1noc(C)c1-c1cnc2c(c1)c(-c1ccc(C(=O)O)cc1OC(F)(F)F)cn2-c1cncnc1 [P-0319, 4-(5-(3,5-dimethylisoxazol-4-yl)-1-(pyrimidin-5-yl)-1H-pyrrolo[2,3-b]pyridin-3-yl)-3-(trifluoromethoxy)benzoic acid]	1 to 8 µM
Cc1noc(C)c1-c1cnc2c(c1)c(-c1ccc(C(=O)O)cc1OC(F)(F)F)cn2-c1cnc(N)nc1 [P-0320, 4-(1-(2-aminopyrimidin-5-yl)-5-(3,5-dimethylisoxazol-4-yl)-1H-pyrrolo[2,3-b]pyridin-3-yl)-3-(trifluoromethoxy)benzoic acid]	1 to 8 µM
Cc1noc(C)c1-c1cnc2c(c1)c(-c1ccc(C(=O)O)cc1OC(F)(F)F)cn2-c1cnc(N(C)C)nc1 [P-0321]	1 to 8 µM
Cc1noc(C)c1-c1cnc2c(c1)c(-c1ccc(C(=O)O)cc1OC(F)(F)F)cn2-c1ccc(C(=O)O)cc1 [P-0322, 4-(1-(4-carboxyphenyl)-5-(3,5-dimethylisoxazol-4-yl)-1H-pyrrolo[2,3-b]pyridin-3-yl)-3-(trifluoromethoxy)benzoic acid]	1 to 8 µM
Cc1noc(C)c1-c1cnc2c(c1)c(-c1ccc(C(=O)O)cc1OC(F)(F)F)cn2-c1ccc(C(N)=O)cc1 [P-0323, 4-(1-(4-carbamoylphenyl)-5-(3,5-dimethylisoxazol-4-yl)-1H-pyrrolo[2,3-b]pyridin-3-yl)-3-(trifluoromethoxy)benzoic acid]	1 to 8 µM
COc1cc(C(=O)O)ncc1-c1cn(-c2ccncc2Cl)c2ncc(-c3c(C)noc3C)cc12 [P-0324, 5-(1-(3-chloropyridin-4-yl)-5-(3,5-dimethylisoxazol-4-yl)-1H-pyrrolo[2,3-b]pyridin-3-yl)-4-methoxypicolinic acid]	1 to 8 µM
Cc1noc(C)c1-c1cnc2c(c1)c(-c1ccc(C(=O)O)cc1OCC(F)F)cn2[C@H]1CCOC1 [P-0325, (S)-3-(2,2-difluoroethoxy)-4-(5-(3,5-dimethylisoxazol-4-yl)-1-(tetrahydrofuran-3-yl)-1H-pyrrolo[2,3-b]pyridin-3-yl)benzoic acid]	8 to 1000 µM
CCn1cc(-n2cc(-c3ccc(C(=O)O)cc3OCC(F)F)c3cc(-c4c(C)noc4C)cnc32)c(C)n1 [P-0326, 3-(2,2-difluoroethoxy)-4-(5-(3,5-dimethylisoxazol-4-yl)-1-(1-ethyl-3-methyl-1H-pyrazol-4-yl)-1H-pyrrolo[2,3-b]pyridin-3-yl)benzoic acid]	8 to 1000 µM
Cc1noc(C)c1-c1cnc2c(c1)c(-c1c(F)cc(C(=O)O)cc1OCC(F)F)cn2-c1ccccc1 [P-0327, 3-(2,2-difluoroethoxy)-4-(5-(3,5-dimethylisoxazol-4-yl)-1-phenyl-1H-pyrrolo[2,3-b]pyridin-3-yl)-5-fluorobenzoic acid]	1 to 8 µM
Cc1noc(C)c1-c1cnc2c(c1)c(-c1ccc(C(=O)O)cc1OCC(F)F)cn2-c1cnc(N2CCC2)nc1 [P-0328, 4-(1-(2-(azetidin-1-yl)pyrimidin-5-yl)-5-(3,5-dimethylisoxazol-4-yl)-1H-pyrrolo[2,3-b]pyridin-3-yl)-3-(2,2-difluoroethoxy)benzoic acid]	8 to 1000 µM
CCOc1cc(C(=O)O)nc(OCC)c1-c1cn(-c2ccc(F)cc2F)c2ncc(-c3c(C)noc3C)cc12 [P-0329, 5-(1-(2,4-difluorophenyl)-5-(3,5-dimethylisoxazol-4-yl)-1H-pyrrolo[2,3-b]pyridin-3-yl)-4,6-diethoxypicolinic acid]	1 to 8 µM
CCOc1cc(C(=O)O)c(F)cc1-c1cn(-c2ccc(F)cc2F)c2ncc(-c3c(C)noc3C)cc12 [P-0330, 4-(1-(2,4-difluorophenyl)-5-(3,5-dimethylisoxazol-4-yl)-1H-pyrrolo[2,3-b]pyridin-3-yl)-5-ethoxy-2-fluorobenzoic acid]	1 to 8 µM
Cc1noc(C)c1-c1cnc2c(c1)c(-c1c(Cl)cc(C(=O)O)cc1OCC(F)F)cn2-c1cnc(N2CCC2)nc1 [P-0331, 4-(1-(2-(azetidin-1-yl)pyrimidin-5-yl)-5-(3,5-dimethylisoxazol-4-yl)-1H-pyrrolo[2,3-b]pyridin-3-yl)-3-chloro-5-(2,2-difluoroethoxy)benzoic acid]	0.0001 to 1 µM
Cc1noc(C)c1-c1cnc2c(c1)c(-c1c(Cl)cc(C(=O)O)cc1OCC(F)F)cn2-c1ccccc1 [P-0332, 3-chloro-5-(2,2-difluoroethoxy)-4-(5-(3,5-dimethylisoxazol-4-yl)-1-phenyl-1H-pyrrolo[2,3-b]pyridin-3-yl)benzoic acid]	1 to 8 µM
Cc1noc(C)c1-c1cnc2c(c1)c(-c1c(Cl)cc(C(=O)O)cc1OCC(F)F)cn2[C@H]1CCOC1 [P-0333, (S)-3-chloro-5-(2,2-difluoroethoxy)-4-(5-(3,5-dimethylisoxazol-4-yl)-1-(tetrahydrofuran-3-yl)-1H-pyrrolo[2,3-b]pyridin-3-yl)benzoic acid]	8 to 1000 µM
Cc1noc(C)c1-c1cnc2c(c1)c(-c1ccc(C(=O)O)cc1OC1CCC1)cn2-c1ncccc1C#N [P-0334, 4-(1-(3-cyanopyridin-2-yl)-5-(3,5-dimethylisoxazol-4-yl)-1H-pyrrolo[2,3-b]pyridin-3-yl)-3-cyclobutoxybenzoic acid]	8 to 1000 µM
Cc1noc(C)c1-c1cnc2c(c1)c(-c1ccc(C(=O)O)cc1OC(F)(F)F)cn2C1(CC#N)CCC1 [P-0335, 4-(1-(1-(cyanomethyl)cyclobutyl)-5-(3,5-dimethylisoxazol-4-yl)-1H-pyrrolo[2,3-b]pyridin-3-yl)-3-(trifluoromethoxy)benzoic acid]	8 to 1000 µM
Cc1noc(C)c1-c1cnc2c(c1)c(-c1ccc(C(=O)O)cc1OC(C)C)cn2-c1ncccc1C#N [P-0336, 4-(1-(3-cyanopyridin-2-yl)-5-(3,5-dimethylisoxazol-4-yl)-1H-pyrrolo[2,3-b]pyridin-3-yl)-3-isopropoxybenzoic acid]	8 to 1000 µM
Cc1noc(C)c1-c1cnc2c(c1)c(-c1ccc(C(=O)O)cc1OC1CC1)cn2-c1ncccc1C#N [P-0337, 4-(1-(3-cyanopyridin-2-yl)-5-(3,5-dimethylisoxazol-4-yl)-1H-pyrrolo[2,3-b]pyridin-3-yl)-3-cyclopropoxybenzoic acid]	8 to 1000 µM
